# “And” between values parts separate entries of the source, which are not always exact repeats. Equal values may be shown once.
# Tested on: HA
# Type: binding, IAV H1N1 strain A/Puerto Rico/8/1934 (PR8)
row,Substance,HA x ratio
1,RRRVNDH,0.72
2,RRRVNHP,1.63
3,RRRVPHH,0.90
4,RKRVNHH,1.35
5,RRRVNGH,0.70
6,RRRVAHH,1.62
7,RYRVNHH,1.46
8,RRRNNHH,2.20
9,RRRVYHH,1.10
10,RRPNNHH,1.47 and 1.90 and 1.08
11,RRPVNHK,1.14 and 0.99 and 0.62
12,RRPRNHH,0.65 and 0.78 and 0.39
13,RRPKNHH,0.76 and 0.64 and 0.51
14,RSRVNHH,2.42
15,RRRKNHH,1.55
16,RRRQNHH,1.81
17,DRRVNHH,0.65
18,RRRVFHH,0.71
19,RRRVNVH,0.80
20,RRFVNHH,2.86
21,RRRVGHH,0.56
22,RNPVNHH,1.21 and 1.04 and 0.76
23,RRRDNHA,1.07 and 0.73 and 0.58
24,RKPVNHH,1.27 and 1.55 and 1.97
25,RHPVNHH,0.90 and 1.23 and 0.70

row,Substance,HA x ratio
1,IRRVNHH,0.41
2,RTRVNHH,2.79
3,RRRINHH,0.39
4,FRRVNHH,0.71
5,RRRVNHG,1.43
6,RRKVNHH,0.82
7,ERRVNHH,0.60
8,RRRVNIH,0.95
9,RGRDNHH,0.78 and 1.32 and 1.08
10,RRRTNHH,0.28
11,KRRVNHH,0.87
12,RRRDNHV,1.05 and 1.22 and 1.16
13,RRRVNQH,0.65
14,RRRPNHH,0.36
15,LRRVNHH,0.80
16,RRRSNHH,0.40
17,RRRVNAH,0.91
18,RSPVNHH,1.07 and 0.89 and 0.72
19,RRRVNRH,0.73
20,RRRVHHH,0.35
21,RARDNHH,0.61 and 0.73 and 0.72
22,RHRVNHH,1.57
23,RERVNHH,0.54
24,RRRVNHY,0.36
25,RRRVVHH,1.27

row,Substance,HA x ratio
1,RRSPNHH,0.39 and 0.47 and 0.43
2,RRRVDHH,1.09
3,RVPVNHH,1.05 and 1.07 and 0.75
4,RRYVNHH,0.69
5,HRRVNHH,0.38
6,RRRFNHH,0.78
7,RRRVNHV,0.49
8,RFPVNHH,1.20 and 1.08 and 1.00
9,RARVNHH,1.61
10,RRRVNFH,0.93
11,RRNDNHH,0.51 and 0.36 and 0.50
12,RRRVIHH,0.63
13,RRRVTHH,0.46
14,RRNVNHH,0.61
15,RRRVNHN,0.66
16,RRMVNHH,0.79
17,RRHVNHH,1.09
18,RRPVNHE,1.47 and 1.30 and 1.11
19,RRRDNHD,0.55 and 0.60 and 0.30
20,RPPVNHH,0.98 and 0.96 and 0.50
21,RMRVNHH,0.90
22,RRRVEHH,0.64
23,WRRVNHH,0.56
24,RRYDNHH,1.25 and 0.92 and 1.56
25,RRRVSHH,0.61

row,Substance,HA x ratio
1,RRRDNHL,0.92 and 0.83 and 0.51
2,RKRDNHH,1.05 and 0.70
3,YRRVNHH,1.34
4,TRRVNHH,0.39
5,RRRVWHH,0.57
6,RRSNNHH,0.73 and 0.74 and 0.37
7,RRDVNHH,0.60
8,RRRVNHS,1.03
9,RRRVNEH,0.49
10,RRRVLHH,1.21
11,NRRVNHH,0.43
12,RRRVNHE,1.77
13,RRRVNHF,0.66
14,RRRVNNH,1.00
15,RREVNHH,3.11
16,RVRVNHH,0.68
17,RRSRNHH,1.02 and 0.86 and 0.77
18,RRMDNHH,0.63 and 1.00 and 0.79
19,RQRVNGG,0.75
20,PRRVNHH,0.56
21,RRRVNYH,1.55
22,RRWVNHH,0.66
23,RRSMNHH,0.75 and 0.55
24,RWRDNHH,1.15 and 1.05 and 0.76
25,RRRYNHH,0.39

row,Substance,HA x ratio
1,RQPVNHH,0.63 and 0.91 and 1.08
2,SRRVNHH,0.49
3,RRRVNHK,0.59
4,RRIVNHH,1.20
5,RRRVRHH,1.24
6,RWRVNHH,1.99
7,RIPVNHH,1.46 and 1.18 and 0.86
8,MRRVNHH,0.73
9,RRRVNWH,0.80
10,RRRRNHH,1.09
11,RRRENHH,0.59
12,RRPVNHF,1.54 and 1.38 and 2.67
13,RRRVNHI,0.72
14,RRRANHH,0.36
15,RMRDNHH,0.77 and 0.40 and 0.59
16,RGRVNHH,1.41
17,GRRVNHH,0.37
18,RRRVQHH,0.71
19,RRRVNSH,0.86
20,RRSKNHH,1.10 and 0.79 and 1.25
21,RRRHNHH,0.30
22,RRPVNHY,1.43 and 0.76 and 0.77
23,RRTVNHH,1.15
24,RRRVNLH,1.09
25,RRRMNHH,2.13

row,Substance,HA x ratio
1,RRPVNHS,1.08 and 1.99 and 1.46
2,RRRVNTH,0.88
3,RRRGNHH,0.46
4,RLRVNHH,1.05
5,QRRVNHH,0.78
6,RRRVMHH,0.90
7,RRPVNHT,0.76 and 1.24 and 0.77
8,RRRWNHH,0.30
9,RRVVNHH,0.57
10,RRQVNHH,2.55
11,RDRVNHH,0.80
12,VRRVNHH,0.98
13,RRADNHH,0.49 and 0.70 and 0.62
14,RRPLNHH,0.82 and 0.76 and 0.42
15,RRFDNHH,0.56 and 0.46 and 0.45
16,RQRDNHH,1.02 and 1.69 and 1.17
17,RRRVNHT,1.23
18,RRRDNHQ,0.36 and 0.45 and 0.67
19,RPRVNHH,0.60
20,RRSFNHH,0.82 and 0.91 and 0.46
21,RIRVNHH,1.38
22,RRLVNHH,0.69
23,RRRVNHA,0.56
24,RRRVNHM,0.42
25,RRRVNMH,1.22

row,Substance,HA x ratio
1,RRRVNHR,1.48
2,RRRVKHH,1.27
3,RRRVNPH,0.89
4,RGPVNHH,1.56 and 1.10 and 0.92
5,RTRDNHH,1.38 and 1.50
6,RRRVNHW,0.44
7,RRRLNHH,0.42
8,RRRVNHD,0.46
9,RRPVNHQ,1.37 and 1.26 and 0.94
10,RRRDNHP,0.54 and 0.61 and 0.45
11,RRRVNHQ,0.72
12,RNRVNHH,1.11
13,RLPVNHH,0.45 and 0.68 and 0.79
14,RHRDNHH,1.05 and 1.04 and 0.77
15,ARRVNHH,0.61
16,RRRVNHL,0.48
17,RRRVNKH,1.27
18,RRAVNHH,0.96
19,RFRVNHH,0.56
20,RRHDNHH,1.24 and 1.02 and 1.09
21,RRGVNHH,2.40

# From PMC6952414 (Nature Communications, 2020)
